Assay results: paper PMC3707081, “Hypothemicin, a fungal natural product, identifies therapeutic targets in Trypanosoma brucei” (eLife, 2013)

Molecular target: T1, TbCLK1 (Trypanosoma brucei, UniProt Q382U0)
T1 construct: gene Tb11.01.4230; full-length, recombinant from E. coli (pET100)
Test: in vitro kinase assay (γ-32P-ATP, myelin basic protein), […] min pre-incubation with […] ATP; also target engagement in intact parasites by competition with probe […]
Assay type: biochemical

T1 sequence (Q382U0 entry or part of it): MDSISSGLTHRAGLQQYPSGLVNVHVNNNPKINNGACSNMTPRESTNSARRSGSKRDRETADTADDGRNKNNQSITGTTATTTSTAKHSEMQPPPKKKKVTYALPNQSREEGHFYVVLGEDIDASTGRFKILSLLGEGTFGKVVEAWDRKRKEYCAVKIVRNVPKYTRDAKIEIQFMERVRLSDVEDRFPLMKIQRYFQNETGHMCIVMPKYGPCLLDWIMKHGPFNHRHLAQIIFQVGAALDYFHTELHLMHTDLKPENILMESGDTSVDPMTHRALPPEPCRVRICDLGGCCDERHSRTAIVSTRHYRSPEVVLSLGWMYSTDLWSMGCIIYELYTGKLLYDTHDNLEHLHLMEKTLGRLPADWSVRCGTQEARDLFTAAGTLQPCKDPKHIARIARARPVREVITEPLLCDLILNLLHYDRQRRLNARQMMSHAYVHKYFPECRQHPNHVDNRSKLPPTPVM

COc1cc(O)c2c(c1)[C@H]1O[C@@H]1C[C@H](O)[C@H](O)C(=O)/C=C\C[C@H](C)OC2=O [compound 1, hypothemycin]
IC50: 150 nM
